pIC50: −log10 of the molar value. The source made the active and inactive calls. The calls are words filed in the database; no cut-off is given here.
Legend:
[1] = tested on: Mus musculus; assay: Antiinflammatory activity against LPS-induced acute lung injury C57BL/6 mouse model assessed as decrease in TNF-alpha mRNA level in lung at 20 mg/kg, IG preincubated with compound for 30 mins followed by LPS-induction and measured after 6 hrs by qPCR analysis; type: functional, organism-based; conditions: time 390.0 min
[2] = tested on: J774.A1; assay: Antiinflammatory activity against mouse J774.A1 cells assessed as inhibition of LPS-induced IL-6 production pretreated with compound for 30 mins followed by LPS induction and measured after 24 hrs by ELISA analysis; type: functional; conditions: time 1470 min; 24.5 h
[3] = tested on: J774.A1; assay: Antiinflammatory activity against mouse J774.A1 cells assessed as inhibition of LPS-induced TNF-alpha release preincubated with compound for 30 mins followed by LPS-induction and measured after 24 hrs by ELISA analysis; type: functional, cell-based
[4] = tested on: J774.A1; assay: Antiinflammatory activity against LPS-induced mouse J774.A1 cells assessed as increase in IkappaB-alpha level at 20 uM incubated for 2 hrs by Western blot analysis; type: functional, cell-based
[5] = tested on: Mus musculus; assay: Antiinflammatory activity against LPS-induced acute lung injury C57BL/6 mouse model assessed as reduction in pulmonary edema by measuring lung wet to dry ratio at 20 mg/kg, IG pretreated with compound for 30 mins followed by LPS-induction and measured after 6 hrs; type: functional, organism-based; conditions: time 390.0 min
[6] = tested on: J774.A1; assay: Antiinflammatory activity against mouse J774.A1 cells assessed as inhibition of LPS-induced IL-6 release preincubated with compound for 30 mins followed by LPS-induction and measured after 24 hrs by ELISA analysis; type: functional, cell-based
[7] = Half life in Sprague-Dawley rat at 10 mg/kg, po measured upto 24 hrs by LC-MS analysis; type: ADME, organism-based; conditions: in vivo
[8] = tested on: J774.A1; assay: Antiinflammatory activity against LPS-induced mouse J774.A1 cells assessed as downregulation of p65 level at 20 uM incubated for 2 hrs by Western blot analysis; type: functional, cell-based
[9] = tested on: Mus musculus; assay: Antiinflammatory activity against LPS-induced acute lung injury C57BL/6 mouse model assessed as pulmonary congestion in lung at 20 mg/kg, IG preincubated with compound for 30 mins followed by LPS-induction and measured after 6 hrs by H and E staining based analysis; type: functional, organism-based; conditions: time 390.0 min
[10] = MRT (0 to t) in Sprague-Dawley rat at 1 mg/kg, iv measured upto 24 hrs by LC-MS analysis; type: ADME, organism-based; conditions: in vivo
[11] = Cmax in Sprague-Dawley rat at 10 mg/kg, po measured upto 24 hrs by LC-MS analysis; type: ADME, organism-based; conditions: in vivo
[12] = tested on: Mus musculus; assay: Antiinflammatory activity against DSS-induced acute colitis C57BL/6 mouse model assessed as reduction in crypt necrosis in colon at 5 mg/kg, po pretreated with DSS for 7 days followed by compound addition for every day for 10 days by H and E staining based analysis; type: functional, organism-based; conditions: time 10.0 day
[13] = AUC (0 to infinity) in Sprague-Dawley rat at 1 mg/kg, iv measured upto 24 hrs by LC-MS analysis; type: ADME, organism-based; conditions: in vivo
[14] = AUC (0 to t) in Sprague-Dawley rat at 10 mg/kg, po measured upto 24 hrs by LC-MS analysis; type: ADME, organism-based; conditions: in vivo
[15] = tested on: J774.A1; assay: Antiinflammatory activity against LPS-induced mouse J774.A1 cells assessed as downregulation of TNF-alpha mRNA level preincubated with compound for 30 mins followed by LPS-induction and measured after 6 hrs by qPCR analysis; type: functional, cell-based; conditions: time 390.0 min
[16] = Tmax in Sprague-Dawley rat at 10 mg/kg, po measured upto 24 hrs by LC-MS analysis; type: ADME, organism-based; conditions: in vivo
[17] = Clearance in Sprague-Dawley rat at 1 mg/kg, iv measured upto 24 hrs by LC-MS analysis; type: ADME, organism-based; conditions: in vivo
[18] = tested on: J774.A1; assay: Antiinflammatory activity against LPS-induced mouse J774.A1 cells assessed as reduction in p65 nuclear translocation at 20 uM incubated for 2 hrs by DAPI staining based immunofluorescence analysis; type: functional, cell-based
[19] = tested on: Mus musculus; assay: Antiinflammatory activity against LPS-induced acute lung injury C57BL/6 mouse model assessed as suppression of IL-6 level in BALF at 20 mg/kg, IG preincubated with compound for 30 mins followed by LPS-induction and measured after 6 hrs by ELISA analysis; type: functional, organism-based; conditions: time 390.0 min
[20] = tested on: Mus musculus; assay: Antiinflammatory activity against LPS-induced acute lung injury C57BL/6 mouse model assessed as lung tissue destruction at 20 mg/kg, IG preincubated with compound for 30 mins followed by LPS-induction and measured after 6 hrs by H and E staining based analysis; type: functional, organism-based; conditions: time 390.0 min
[21] = tested on: Mus musculus; assay: Antiinflammatory activity against LPS-induced acute lung injury C57BL/6 mouse model assessed as reduction in protein concentration in BALF at 20 mg/kg, IG preincubated with compound for 30 mins followed by LPS-induction and measured after 6 hrs; type: functional, organism-based; conditions: time 390.0 min
[22] = Oral bioavailability in Sprague-Dawley rat at 10 mg/kg measured upto 24 hrs by LC-MS analysis; type: ADME, organism-based; conditions: in vivo
[23] = tested on: Mus musculus; assay: Antiinflammatory activity against DSS-induced acute colitis C57BL/6 mouse model assessed as increase in colon length at 5 mg/kg, po pretreated with DSS for 7 days followed by compound addition for every day for 10 days; type: functional, organism-based; conditions: time 10.0 day
[24] = Apparent volume of distribution in Sprague-Dawley rat at 10 mg/kg, po measured upto 24 hrs by LC-MS analysis; type: ADME, organism-based; conditions: in vivo
[25] = Cmax in Sprague-Dawley rat at 1 mg/kg, iv measured upto 24 hrs by LC-MS analysis; type: ADME, organism-based; conditions: in vivo
[26] = tested on: Mus musculus; assay: Antiinflammatory activity against DSS-induced acute colitis C57BL/6 mouse model assessed as reduction in inflammatory infiltration in colon at 5 mg/kg, po pretreated with DSS for 7 days followed by compound addition for every day for 10 days by H and E staining based analysis; type: functional, organism-based; conditions: time 10.0 day
[27] = tested on: Mus musculus; assay: Antiinflammatory activity against LPS-induced acute lung injury C57BL/6 mouse model assessed as suppression of IL-6 level in serum at 20 mg/kg, IG preincubated with compound for 30 mins followed by LPS-induction and measured after 6 hrs by ELISA analysis; type: functional, organism-based; conditions: time 390.0 min
[28] = Tmax in Sprague-Dawley rat at 1 mg/kg, iv measured upto 24 hrs by LC-MS analysis; type: ADME, organism-based; conditions: in vivo
[29] = Half life in Sprague-Dawley rat at 1 mg/kg, iv measured upto 24 hrs by LC-MS analysis; type: ADME, organism-based; conditions: in vivo
[30] = tested on: Mus musculus; assay: Antiinflammatory activity against DSS-induced acute colitis C57BL/6 mouse model assessed as reduction in mucosal damage in colon at 5 mg/kg, po pretreated with DSS for 7 days followed by compound addition for every day for 10 days by H and E staining based analysis; type: functional, organism-based; conditions: time 10.0 day
[31] = tested on: Mus musculus; assay: Antiinflammatory activity against DSS-induced acute colitis C57BL/6 mouse model assessed as reduction in splenomegaly at 5 mg/kg, po pretreated with DSS for 7 days followed by compound addition for every day for 10 days; type: functional, organism-based; conditions: time 10.0 day
[32] = tested on: Mus musculus; assay: Antiinflammatory activity against LPS-induced acute lung injury C57BL/6 mouse model assessed as suppression of TNF-alpha level in serum at 20 mg/kg, IG preincubated with compound for 30 mins followed by LPS-induction and measured after 6 hrs by ELISA analysis; type: functional, organism-based; conditions: time 390.0 min
[33] = MRT (0 to t) in Sprague-Dawley rat at 10 mg/kg, po measured upto 24 hrs by LC-MS analysis; type: ADME, organism-based; conditions: in vivo
[34] = tested on: Mus musculus; assay: Antiinflammatory activity against LPS-induced acute lung injury C57BL/6 mouse model assessed as suppression of TNF-alpha level in BALF at 20 mg/kg, IG preincubated with compound for 30 mins followed by LPS-induction and measured after 6 hrs by ELISA analysis; type: functional, organism-based; conditions: time 390.0 min

Q: Which Activity [1] does the source give for `O=[N+]([O-])c1ccc(N2CCN(c3ccc(S(=O)(=O)NCc4ccccn4)cc3[N+](=O)[O-])CC2)cc1` here?
A: Active

Q: And the “inhibition (INH)” value [2]?
A: 85.92%

Q: And the pIC50 [3]?
A: 5.36

Q: What about the Activity [4] of the same molecule?
A: Active

Q: And the Activity [5]?
A: Active

Q: And the pIC50 [6]?
A: 6.21

Q: What about the half-life [7] of the same molecule?
A: 7.1 h

Q: What about the Activity [8] of the same molecule?
A: Active

Q: What about the Activity [9] of the same molecule?
A: Active

Q: And the MRT last at 24 h [10]?
A: 1.1 h

Q: What about the Cmax [11] of the same molecule?
A: 168 ng/mL

Q: What about the Activity [12] of the same molecule?
A: Active

Q: And the AUC(0-inf) [13]?
A: 1120 ng·h/mL

Q: What about the AUC(0-t) at 24 h [14] of the same molecule?
A: 1060 ng·h/mL

Q: What about the Activity [15] of the same molecule?
A: Active

Q: And the Tmax [16]?
A: 2.8 h

Q: What about the clearance [17] of the same molecule?
A: 15 mL/min/kg

Q: And the Activity [18]?
A: Active

Q: What about the Activity [19] of the same molecule?
A: Active

Q: And the Activity [20]?
A: Active

Q: And the Activity [21]?
A: Active

Q: And the bioavailability [22]?
A: 10.6%

Q: And the Activity [23]?
A: Active

Q: What about the Vz [24] of the same molecule?
A: 80 L/kg

Q: And the Cmax [25]?
A: 1320 ng/mL

Q: What about the Activity [26] of the same molecule?
A: Active

Q: And the Activity [27]?
A: Active

Q: What about the Tmax [28] of the same molecule?
A: 8.4 min

Q: And the half-life [29]?
A: 1.8 h

Q: And the Activity [30]?
A: Active

Q: And the Activity [31]?
A: Active

Q: What about the Activity [32] of the same molecule?
A: Active

Q: And the MRT last at 24 h [33]?
A: 7.2 h

Q: What about the Activity [34] of the same molecule?
A: Active

From ChEMBL document CHEMBL5625228, “Design, synthesis, and bioactivity evaluation of novel amide/sulfonamide derivatives as potential anti-inflammatory agents against acute lung injury and ulcerative colitis” (Eur J Med Chem, 2023)
